Laboratory results published in publication PMC3740782, “Synthesis of some potent immunomodulatory and anti-inflammatory metabolites by fungal transformation of anabolic steroid oxymetholone” (Chemistry Central Journal, 2012).

Assays:
[1] = system: T-cell proliferation (PHA activated human peripheral mononuclear cells, PBMC); test: T-cell proliferation inhibition assay (PHA-activated PBMC, tritiated thymidine incorporation); format: cell-based; conditions: PHA (5 μg/mL) stimulated PBMC, 72 h + 18 h thymidine pulse, mean of triplicate ± SD, read-out: IC50, inhibitory effect on T-cell proliferation
Experimental: Peripheral blood mononuclear cells (PBMC) were isolated from heparinized venous blood of healthy adult donors by Ficoll–Hypaque gradient centrifugation. Cells were proliferated as reported earlier. Briefly, cells were cultured at a concentration of 2 × 10^6/mL in a 96-well round bottom tissue culture plate. Cells were stimulated with 5 μg/mL of phytohemagglutinin. Various concentrations of compounds were added to obtain final concentrations of 0.5, 5, 50 μg/mL, each in triplicate. The plate was incubated for 72 h at 37°C in 5% CO2 environment. After 72 h, cells were pulsed with 0.5 μCi/well, tritiated thymidine, and further incubated for 18 h. Cells were harvested onto a glass fiber filter by using cell harvester. The tritiated thymidine incorporation into the cells, which reflects the proliferation level, was measured by a liquid scintillation counter.

[2] = system: ROS production in whole blood phagocytes; test: Luminol-enhanced phagocyte chemiluminescence assay, ROS production in whole blood; format: cell-based; conditions: zymosan activated, luminol probe, mean of triplicate ± SD; for IC50: Homo sapiens
Experimental: (§1) Luminol-enhanced chemiluminescence assay was performed according to the previous reported method. Briefly 25 μL of whole blood or neutrophils (1 × 10^6/mL), suspended in Hank’s solution, were incubated with 25 μL compounds (1, 10, 100 μg/mL for whole blood and 0.5, 5, 50 μg/mL for neutrophils) for 30 min. Zymosan 25 μL (20 mg/mL), followed by 25 μL (7 × 10^-5 M) of luminol was added to make a final volume of 100 μL. A control without the compound was also run. Peak chemiluminescence was recorded using the luminometer. The luminometer was set with repeated scan mode, 50 scans with 30 s intervals and one second point measuring time.

ROS production in PMNs = test: Luminol-enhanced phagocyte chemiluminescence assay, ROS production in isolated PMNs (neutrophils); format: cell-based; conditions: Homo sapiens, Neutrophil, zymosan activated, luminol probe, mean of triplicate ± SD
Experimental: as §1

T-cells = system: T-cells; set-up: method as in PMID 11071398; conditions: by decreasing the activity of T-cells; cited from earlier work

Which results are given for C[C@]12CC(=CO)C(=O)C[C@@H]1CC[C@@H]1[C@@H]2CC[C@@]2(C)[C@H]1CC[C@]2(C)O [Compound 1, 17β-hydroxy-2-(hydroxymethylene)-17α-methyl-5α-androstan-3-one, reference compound]?
IC50 [1]: 7.5 ± 0.4 µg/mL; IC50 [2]: ~2 µg/mL; IC50, ROS production (Whole Blood phagocytes) ([2]; human whole blood): 2.3 ± 0.0 µg/mL; IC50 (ROS production in PMNs): 6.3 ± 0.1 µg/mL; Immunosuppressant activity in vivo (T-cells): immunosuppressant activity

Which results are given for CC(C)Cc1ccc(C(C)C(=O)O)cc1 (centres unmarked) [Ibuprofen, reference compound]?
IC50 [2]: 11.2 ± 1.9 µg/mL; IC50 (ROS production in PMNs): 2.5 ± 0.6 µg/mL

What does the source list for C[C@]12C[C@@H](CO)C(=O)C[C@@H]1CC[C@@H]1[C@@H]2CC[C@@]2(C)[C@H]1CC[C@]2(C)O [Compound 6, 17β-Hydroxy-2α-(hydroxymethyl)-17α-methyl-5α-androstan-3-one]?
IC50 [1]: 2.7 ± 0.2 µg/mL; IC50 [2]: > 100 µg/mL; IC50 (ROS production in PMNs): > 50 µg/mL; melting point: 197 to 199 °C

With C[C@]12C=CC(=O)C=C1CC[C@@H]1[C@@H]2[C@@H](O)C[C@@]2(C)[C@H]1CC[C@]2(O)C(=O)CO [Prednisolone, reference compound] as the compound, how does the IC50 [1] read?
The IC50 was under 3.1 µg/mL.

What does the source list for C[C@]12C=C(CO)C(=O)C=C1CC[C@@H]1[C@@H]2CC[C@@]2(C)[C@H]1CC[C@]2(C)O [Compound 5, 17β-Hydroxy-2-(hydroxymethyl)-17α-methylandrost-1,4-dien-3-one]?
IC50 [1]: 31.2 ± 1.9 µg/mL; IC50 [2]: > 100 µg/mL; IC50 (ROS production in PMNs): > 50 µg/mL; melting point: 163 to 164 °C

What does the source list for C[C@]12C[C@@H](CO)[C@H](O)C[C@@H]1CC[C@@H]1[C@@H]2CC[C@@]2(C)[C@H]1CC[C@@]2(O)CO [Compound 3, 2α,17α-Di(hydroxymethyl)-5α-androstan-3β-17β-diol]?
IC50 [1]: 17 ± 1.2 µg/mL; IC50 [2]: > 100 µg/mL; IC50 (ROS production in PMNs): > 50 µg/mL

With CC12CC(O)C(O)CC1CCC1C2CCC2(C)C1CCC2(C)O (stereo not drawn) [Compound 4, 17α-Methyl-5α-androstan-2α,3β-17β-triol] as the compound, how does the IC50 [1] read?
The IC50 was 11.8 ± 0.9 µg/mL.

What about the IC50 [2] of the same compound?
The IC50 was over 100 µg/mL.

And the IC50 (ROS production in PMNs)?
Its IC50 is over 50 µg/mL.

And the melting point?
The melting point was 124 to 125 °C.

For C[C@]12C=C(CO)C(=O)C[C@@H]1CC[C@@H]1[C@@H]2CC[C@@]2(C)[C@H]1CC[C@]2(C)O [Compound 2, 17β-Hydroxy-2-(hydroxymethyl)-17α-methyl-5α-androstan-1-en-3-one], which IC50 [1] is on record?
The IC50 was 17.4 ± 1.2 µg/mL.

And the IC50 [2]?
The IC50 was about 2 µg/mL.

With C[C@]12C[C@@H](CO)[C@H](O)C[C@@H]1CC[C@@H]1[C@@H]2CC[C@@]2(C)[C@H]1CC[C@]2(C)O [Compound 7, 2α-(Hydroxymethyl)-17α-methyl-5α-androstan-3β-17β-diol] as the compound, how does the IC50 [1] read?
The IC50 was 10.6 ± 0.4 µg/mL.

What about the IC50 [2] of the same compound?
The IC50 was 25.6 µg/mL.

And the IC50 (ROS production in PMNs)?
Its IC50 is over 50 µg/mL.

And the melting point?
Its melting point is 279 to 281 °C.
